In patent US20250018049A1, “COMPOUNDS FOR DEGRADING CYCLIN-DEPENDENT KINASE 2 VIA UBIQUITIN PROTEOSOME PATHWAY” (NIKANG THERAPEUTICS, INC., priority 2020, published 2025):

What was measured:
Format in all cases: cell-based
CDK1 = biological target: T1, CDK1 (Homo sapiens, UniProt P06493); experiment: Phospho-Rb HTRF measurement in KYSE520 cells (inhibition of CDK1); settings: CDK2-dependent OVCAR3 vs CDK2-independent but CDK1-dependent KYSE520 cell line
T1 construct: endogenous in cells; host or cells: KYSE520
T1 sequence (P06493 whole entry): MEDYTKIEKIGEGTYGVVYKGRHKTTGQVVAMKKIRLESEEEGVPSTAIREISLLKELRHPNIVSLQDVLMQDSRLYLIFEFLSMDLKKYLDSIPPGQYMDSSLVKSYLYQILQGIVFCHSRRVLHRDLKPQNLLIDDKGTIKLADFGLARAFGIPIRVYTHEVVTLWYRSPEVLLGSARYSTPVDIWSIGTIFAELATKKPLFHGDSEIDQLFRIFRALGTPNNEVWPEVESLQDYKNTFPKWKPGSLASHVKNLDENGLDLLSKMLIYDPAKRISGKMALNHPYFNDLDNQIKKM
T1 sequence (P14635 whole entry partner): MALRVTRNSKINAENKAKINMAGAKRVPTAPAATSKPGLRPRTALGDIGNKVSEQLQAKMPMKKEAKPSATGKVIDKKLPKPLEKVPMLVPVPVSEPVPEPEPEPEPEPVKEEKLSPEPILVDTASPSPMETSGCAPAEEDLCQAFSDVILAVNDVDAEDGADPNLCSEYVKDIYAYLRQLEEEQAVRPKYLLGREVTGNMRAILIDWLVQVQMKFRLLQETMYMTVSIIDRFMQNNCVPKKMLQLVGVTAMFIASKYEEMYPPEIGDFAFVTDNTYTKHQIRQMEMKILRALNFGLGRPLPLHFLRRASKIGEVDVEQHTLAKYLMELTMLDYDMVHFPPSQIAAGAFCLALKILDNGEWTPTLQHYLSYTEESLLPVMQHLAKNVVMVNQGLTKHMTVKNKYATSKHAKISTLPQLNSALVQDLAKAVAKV
Protocol: Phosphorylation of RB protein at S780 and S807/811 were measured using HTRF phospho-RB cellular kits (Cat #64RBS780PEG and 64RBS807PEG) from Cisbio.
On Day 1, OVCAR3 or KYSE520 cells were seeded into 96-well tissue-culture treated plates at 20,000 cells/well in 200 μL and incubated overnight at 37° C. in CO2 atmosphere. On Day 2, the cells were treated with test compounds at concentrations from 0.3 to 10,000 nM using HP D300 digital dispenser. Twenty-four hours after compound treatment, cell culture media was removed by flicking the plate and tapping the plate against clean paper towel. Immediately 30 μL 1× lysis buffer was supplemented from the kit and the plate was incubated at room temperature on shaker for 30 min. After homogenization by pipetting up and down, 8 μL cell lysate from 96-well cell culture plate was transferred to 384-well small volume white detection plate. 2 μL premixed detection solution was added and the plate was covered with sealer. To prepare the detection solution, d2 conjugated-phospho-RB antibody and Eu-cryptate conjugated phosphor-RB antibody were diluted into detection buffer following manufacturer's instruction. Detection plates were incubated for 4 h at room temperature and read on ClarioStar (BMG Labtech) in TR-FRET mode (665 nM and 620 nM). The TR-FRET ratio (665 nM/620 nM) was plotted against the compound concentration and normalized to DMSO controls. Half maximal inhibition concentration (IC50) values are calculated with a four-parameter logistic fit using GraphPad Prism (version 8; La Jolla, CA).
Compound 5 was not tested in the KYSE520 cell line.

CDK2 [1] = biological target: T2, CDK2 (Homo sapiens, UniProt P24941); experiment: NanoBRET CDK2 engagement assay; parameters: expressed in transfected cells; settings: OVCAR3 cells with stable CDK2-Luciferase vector, 24 hours treatment
How it was run: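 OVCAR3 cells stably expressing CDK2-luciferase, in Opti-MEM with 1% FBS, treated 24 h at 37° C with compound from 3 μM in ½-log steps to 0.3 nM; NanoBRET tracer present for final 2 h. Donor/acceptor emission read; engagement normalized to DMSO as 100% signal, IC50 by curve fit.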

CDK2 [2] = biological target: T2, CDK2; experiment: Phospho-Rb HTRF measurement in OVCAR3 cells (inhibition of CDK2); parameters: High-Throughput Measurement of Cellular Endogenous CDK2; endogenous in cells; host or cells: OVCAR3; settings: pRB(S807/811) assay, 24 h compound treatment
CDK2 [3] = biological target: T2, CDK2; experiment: CDK2 HTRF assay (cellular endogenous CDK2 level); parameters: High-Throughput Measurement of Cellular Endogenous CDK2; endogenous in cells; host or cells: OVCAR3; settings: OVCAR-3; OVCAR3 cells, 24 hours, 0.3 to 10,000 nM; read-out: max degradation of CDK2
How it was run: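 OVCAR3 cells treated 24 h with compounds at 0.3–10,000 nM, then lysed and total CDK2 measured by HTRF using d2- and Eu-cryptate-labelled CDK2 antibodies (TR-FRET 665/620 nm ratio). Signal normalized to DMSO controls; DC50 from four-parameter logistic fit.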

Row | Compound | times more potent pRb inhibition in OVCAR3 than in KYSE520 (CDK1) [times] | IC50 (CDK2 [1]) [nM] | IC50 (CDK2 [2]) [nM] | Dmax (CDK2 [3]) [%]
1 | Cn1c(=O)n(C2CCC(=O)NC2=O)c2cccc(CNCCOc3cccc(S(=O)(=O)N4CCC(Nc5ncc6ccc(=O)n(C7CCCC7)c6n5)CC4)c3)c21 (centres unmarked) [Compound 41, 3-(4-(((2-(3-((4-((8-cyclopentyl-7-oxo-7,8-dihydropyrido[2,3-d]pyrimidin-2-yl)amino)-piperidin-1-yl)sulfonyl)phenoxy)ethyl)amino)-methyl)-3-methyl-2-oxo-2,3-dihydro-1H-benzo[d]imidazol-1-yl)piperidine-2,6-dione] | ~20.5 | 214 | 267 | –
2 | O=C1CCC(N2C(=O)c3cccc(NCCOCCOCCOCCNS(=O)(=O)N4CCC(Nc5ncc6ccc(=O)n(C7CCCC7)c6n5)CC4)c3C2=O)C(=O)N1 (centres unmarked) [Compound 21, 4-((8-cyclopentyl-7-oxo-7,8-dihydropyrido[2,3-d]pyrimidin-2-yl)amino)-N-(2-(2-(2-(2-((2-(2,6-dioxopiperidin-3-yl)-1,3-dioxoisoindolin-4-yl)amino)ethoxy)ethoxy)ethoxy)ethyl) piperidine-1-sulfonamide] | ~11 | 1170 | 422 | –
3 | O=C1CCC(N2Cc3cc(N4CCC(CN5CCC(c6cccc(S(=O)(=O)N7CCC(Nc8ncc9ccc(=O)n(C%10CCCC%10)c9n8)CC7)c6)CC5)CC4)ccc3C2=O)C(=O)N1 (centres unmarked) [Compound 34, 3-(5-(4-((4-(3-((4-((8-cyclopentyl-7-oxo-7,8-dihydropyrido[2,3-d]pyrimidin-2-yl)amino)-piperidin-1-yl)sulfonyl)phenyl)piperidin-1-yl)-methyl)piperidin-1-yl)-1-oxoisoindolin-2-yl)-piperidine-2,6-dione] | ~10.5 | 86 | 50.3 | 35 to 90
4 | O=C1CCC(N2Cc3cc(N4CC(N5CCC(Oc6cccc(S(=O)(=O)N7CCC(Nc8ncc9ccc(=O)n(C%10CCCC%10)c9n8)CC7)c6)CC5)C4)ccc3C2=O)C(=O)N1 (centres unmarked) [Compound 28, 3-(5-(3-(4-(3-((4-((8-cyclopentyl-7-oxo-7,8-dihydropyrido[2,3-d]pyrimidin-2-yl)amino)-piperidin-1-yl)sulfonyl)phenoxy)piperidin-1-yl)-azetidin-1-yl)-1-oxoisoindolin-2-yl)piperidine-2,6-dione] | ~21 | 176 | 52.9 | 35 to 90
